Laboratory results from paper PMC5895803, “Inhibition of cancer stem cell like cells by a synthetic retinoid” (Nature Communications, 2018).
pIC50: −log10 of the molar value. Entries after “also recorded” stand apart in the source; their conditions may differ.

Key:
human lung cancer A549 = assay: Colony growth of A549 TRCs in 90-Pa fibrin gels; format: cell-based
Method: (§1) Salmon fibrinogen and thrombin were purchased from Reagent Proteins (CA, USA). 3D fibrin gels were prepared as described previously[5],[6]. In brief, fibrinogen was diluted into 2 mg mL^−1 with T7 buffer (pH 7.4, 50 mM Tris, 150 mM NaCl). Cells were detached from 2D rigid dishes and cell density was adjusted to 10^4 cells per mL. Fibrinogen and cell solution mixture were made by mixing the same volume of fibrinogen solution and cell solution, resulting in 1 mg mL^−1 fibrinogen and 5000 cells per mL in the mixture fibrin gels. A volume of 50 μL cell/fibrinogen mixture was seeded into each well of 96-well plate and mixed well with pre-added 1 μL thrombin (100 U mL^−1). The cell culture plate was then incubated in 37 °C cell culture incubator for 10 min. Finally, 200 μL of DMEM medium containing 10% FBS and antibiotics was added.

[1] = tested on: human melanoma MDA-MB-435s; assay: Colony growth of MDA-MB-435s TRCs in 90-Pa fibrin gels; format: cell-based
Method: as §1

[2] = Systemic toxicity in treated mice (body weight, organs); format: in vivo, C57BL/6 mice
Source text: Four- to six-week-old female and male C57BL/6 mice were used in mice experiment. Mice were randomized into different groups. In metastasis experiment, B16-F1 cell spheroids were selected from 3D 90-Pa fibrin gels and pipetted to single cells. These TRCs were harvested and the cell number was counted under microscopy. The cells were then suspended in PBS with appropriate cell density. Thirty thousand TRCs were intravenously injected into the tail vein of each wild-type C57BL/6 mouse. Five days later, inoculated mice were intravenous implanted with 0.022 mg kg^−1 WYC-209, 0.22 mg kg^−1 WYC-209, or 0.1% DMSO every two days. The mice were euthanized and examined for lung tumor formation at day 30. In treated TRCs injected in vivo experiments, B16-F1 cells were seeded into 3D 90-Pa fibrin gels and treated with 10 µM WYC-209 or 0.1% DMSO on day 3, then isolated treated TRCs colonies on day 5 and pipetted into single cell. 30,000 of TRCs were intravenously injected into the tail vein of each wild-type C57BL/6 mouse. No blinding was performed in the mice experiments.
Lung, liver, spleen, bone, stomach, and brain of C57BL/6 mice were fixed by 4% paraformaldehyde then were embedded in paraffin and cut to ~4 µm thick sections by Thermo FINESSE 325. Organ sections were stained by H&E and slides were evaluated for tumor formation by a veterinary pathologist blinded to sample identity.

[3] = tested on: B16-F1 melanoma cells / TRCs; assay: Apoptosis by Annexin-V and PI flow cytometry; format: cell-based, murine; settings: 10 μM, 24 h after treatment
Method: For Annexin-V and PI staining to quantify cell apoptosis, treated TRCs were isolated from 3D fibrin gel by using 5 mg mL^−1 Dispase II (Sigma), cells were labeled with FITC-conjugated Annexin-V and PI according to the manufacturer’s instruction (Biolegend). Data were acquired on a BD Cantoll (BD biosciences) and analyzed with FlowJo software. For BrdU staining to quantify cell proliferation, cells were labeled with FITC-conjugated anti-BrdU antibody according to the manufacturer’s instruction (FITC BrdU Flow Kit, BD Biosciences) and then data were acquired on an Accuri C6 (BD Biosciences) and analyzed with BD Accuri C6 software.
Supplementary Figure 12. WYC-209 induces TRC apoptosis at 10 µM. (a)
Murine melanoma B16-F1 cells were seeded into 3D soft fibrin gels and then treated […]
The cells were collected after 24 hours and stained with FITC-conjugated Annexin-V and PI for apoptotic detection by flow cytometry. Apoptotic cells (%) = 100% - (Annexin-V-PI-) %. Mean ± s.e.m.; 3 separate experiments; *** P<0.001 (Student’s t-test). (b) Original images of flow cytometry of (a).
(§2) (1 picture or pasted object on this page, not shown here)
Supplementary Figure 38. WYC-209 induces tumor cell apoptosis. […]

Sox2 = Sox2 expression by qPCR in TRCs; format: cell-based, murine
Method: Total mRNA was isolated from the cells using the Trizol reagent according to the supplier’s instruction (Invitrogen). Reverse transcription (RT) was performed using the TransScript First-strand cDNA Synthesis SuperMix (TransGen), according to the manufacturer’s protocol. Real-time RT-PCR was performed using GoTaq qPCR Master Mix (Promega). The data were normalized against mouse glyceraldehyde 3-phosphate dehydrogenase. The primer sequences are as follows: mouse GAPDH (F: 5′-[…]-3′, R: 5′-[…]-3′); mouse RARα (F: 5′-[…]-3′, R: 5′-[…]-3′); mouse RARβ (F: 5′-[…]-3′, R: 5′-[…]-3′); mouse RARγ (F: 5′-[…]-3′, R:5′-[…]-3′); mouse Sox2 (F: 5′-[…]-3′, R: 5′-[…]-3′); mouse Mitf (F: 5′-[…]-3′, R: 5′-[…]-3′).
Supplementary Figure 39. WYC-209 decreases Sox2 expression but has no effects on Mitf expression. Murine melanoma cells B16-F1 were seeded into 3D soft fibrin gels and then were treated with 0.1% DMSO, 0.1, 1 or 10 µM WYC-209, WYC-209A, or WYC-209B on day 4. mRNA of cells were extracted after 24 hours. Sox2 (a) and Mitf (b) expressions […]
as §2

3T3 fibroblasts = assay: Non-cancerous 3T3 fibroblasts on rigid dishes; format: cell-based, murine; settings: 0.1, 1, or 10 μM, 18 hrs
Method: Murine fibroblast cell line 3T3 cells were cultured on rigid plastic and treated with 0.1, 1, or 10 μM WYC-209 at the time of plating and observed for 18 hrs. Cell nucleus were stained with DAPI and apoptotic cells were assayed with PI. None: medium only; DMSO: medium containing 0.1% DMSO. (a) Representative images of cells at hour 18. (b) Quantitation of cell numbers per view field at hour 18. Mean ± s.e.m.; n= 5 randomly chosen view-fields; 3 separate experiments; no significant differences were observed between groups (Student’s t-test). Scale bars, 500 μm.
as §2

## CCOC(=O)c1cnc(C#Cc2ccc3c(c2)C(C)(C)CC[S+]3[O-])nc1 (stereo not shown) [WYC-209]
Human lung cancer A549; 0 h, A549, treated on day 0
  pIC50: 7.00
Human lung cancer A549; A549, 10 μM
  inhibition at 10 µM: 100%
[1]; 0 h, treated on day 0
  pIC50: 6.28
[1]; 10 μM
  inhibition at 10 µM: 100%
[2]; 0.022 or 0.22 mg kg−1
  Mouse body weight versus control group: no effects on mouse weight
[2]; 0.022 or 0.22 mg kg−1 i.v. every two days
  Toxic effects in mice / on organs: No abnormalities in mouse organs; also recorded: no toxic effects on mouse livers; also recorded: no toxic effects on mouse stomach; also recorded: no observable toxic or necrotic effects or weight loss; also recorded: without showing apparent toxicity
[3]
  Apoptosis of un-selected melanoma cells or melanoma TRCs: ~ 95%
Sox2; 10 μM, 24 h
  Decrease of Sox2 expression: ~ 50%
Sox2; 0.1 or 1 µM
  Change in Sox2 expression: no change
3T3 fibroblasts
  Impact / toxicity on non-cancerous 3T3 fibroblasts: little toxicity; also recorded: little impact
